Structures can show the parent of a compound that is named as a salt. Where two headings read alike, the source gives them in different places.
Legend:
Format in all cases: biochemical
[1] = target: T1, recombinant human MAO-A (monoamine oxidase-A) (Homo sapiens, UniProt P21397); assay: Activity evaluation on recombinant human MAO-A (Amplex Red/HRP-coupled assay, 0.5 mM tyramine substrate); settings: read-out: Inhibitory Activity (IC50, nM) MAO-A
T1 construct: purchased Sigma-Aldrich
T1 sequence (P21397 1-527): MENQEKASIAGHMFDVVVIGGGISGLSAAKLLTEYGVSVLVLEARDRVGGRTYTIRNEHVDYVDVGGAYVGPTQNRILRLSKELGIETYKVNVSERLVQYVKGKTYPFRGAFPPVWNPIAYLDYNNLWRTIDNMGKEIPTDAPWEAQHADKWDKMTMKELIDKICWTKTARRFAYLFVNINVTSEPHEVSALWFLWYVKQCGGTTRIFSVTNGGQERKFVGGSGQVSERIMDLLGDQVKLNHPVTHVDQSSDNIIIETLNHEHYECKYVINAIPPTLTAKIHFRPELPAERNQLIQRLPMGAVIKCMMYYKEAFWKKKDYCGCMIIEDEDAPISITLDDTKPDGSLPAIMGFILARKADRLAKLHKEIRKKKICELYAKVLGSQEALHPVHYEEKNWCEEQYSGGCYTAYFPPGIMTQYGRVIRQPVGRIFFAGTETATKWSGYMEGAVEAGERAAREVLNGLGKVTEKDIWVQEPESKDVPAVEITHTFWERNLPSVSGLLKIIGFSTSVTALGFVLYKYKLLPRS
Outline: (§1)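 Enzyme activity was measured as fluorescence rate (ex 544, em 590 nm) from resorufin formed by HRP-coupled H2O2 oxidation of 200 uM Amplex Red. Compounds were first incubated 30 min at 37 °C with enzyme at pH 7.4; substrates were 0.5 mM tyramine (MAO-A), 1 mM benzylamine (MAO-B) and 1 mM putrescine (DAO).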

[2] = target: T2, recombinant human DAO (diamine oxidase) (Homo sapiens, UniProt P19801); assay: Activity evaluation on recombinant human DAO (Amplex Red/HRP-coupled assay, 1 mM putrescine substrate); settings: read-out: Inhibitory Activity (IC50, nM) DAO
T2 construct: purchased R&D systems
T2 sequence (P19801 20-751): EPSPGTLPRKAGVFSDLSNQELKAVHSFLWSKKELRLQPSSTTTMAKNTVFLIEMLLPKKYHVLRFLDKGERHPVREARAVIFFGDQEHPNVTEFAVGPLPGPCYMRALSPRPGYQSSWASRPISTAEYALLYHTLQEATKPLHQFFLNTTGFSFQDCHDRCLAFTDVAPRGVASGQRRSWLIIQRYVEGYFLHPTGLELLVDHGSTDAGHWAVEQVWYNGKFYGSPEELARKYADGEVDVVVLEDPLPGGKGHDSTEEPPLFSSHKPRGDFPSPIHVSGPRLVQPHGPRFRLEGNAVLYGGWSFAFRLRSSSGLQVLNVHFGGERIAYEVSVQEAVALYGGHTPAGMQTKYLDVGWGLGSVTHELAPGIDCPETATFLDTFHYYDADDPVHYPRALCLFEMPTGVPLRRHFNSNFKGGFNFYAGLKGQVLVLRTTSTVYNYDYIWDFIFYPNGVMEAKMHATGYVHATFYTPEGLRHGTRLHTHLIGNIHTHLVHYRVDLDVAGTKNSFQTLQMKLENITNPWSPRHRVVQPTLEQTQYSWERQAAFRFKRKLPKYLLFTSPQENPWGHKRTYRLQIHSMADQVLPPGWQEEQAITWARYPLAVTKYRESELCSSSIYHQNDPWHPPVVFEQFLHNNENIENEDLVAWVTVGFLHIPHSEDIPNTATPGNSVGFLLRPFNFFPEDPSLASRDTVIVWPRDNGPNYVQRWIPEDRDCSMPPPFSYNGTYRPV
Outline: as §1

[3] = target: T3, recombinant human MAO-B (monoamine oxidase-B) (Homo sapiens, UniProt P27338); assay: Activity evaluation on recombinant human MAO-B (Amplex Red/HRP-coupled assay, 1 mM benzylamine substrate); settings: read-out: Inhibitory Activity (IC50, nM) MAO-B
T3 construct: purchased Sigma-Aldrich
T3 sequence (P27338 1-520): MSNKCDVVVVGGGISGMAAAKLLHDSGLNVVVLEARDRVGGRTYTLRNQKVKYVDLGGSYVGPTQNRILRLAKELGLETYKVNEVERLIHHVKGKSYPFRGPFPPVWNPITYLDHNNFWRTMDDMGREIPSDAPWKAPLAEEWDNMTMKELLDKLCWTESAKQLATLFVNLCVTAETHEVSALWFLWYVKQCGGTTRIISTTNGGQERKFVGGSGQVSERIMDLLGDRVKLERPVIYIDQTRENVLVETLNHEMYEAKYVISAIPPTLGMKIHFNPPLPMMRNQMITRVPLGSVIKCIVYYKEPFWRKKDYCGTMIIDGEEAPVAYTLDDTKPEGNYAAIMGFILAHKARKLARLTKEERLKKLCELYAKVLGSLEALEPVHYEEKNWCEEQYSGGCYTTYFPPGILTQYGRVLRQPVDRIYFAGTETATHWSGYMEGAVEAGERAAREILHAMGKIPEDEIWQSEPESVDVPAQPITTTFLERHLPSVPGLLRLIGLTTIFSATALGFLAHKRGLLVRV
Outline: as §1

recombinant human VAP-1 = target: T4, recombinant human VAP-1 (Homo sapiens, UniProt Q16853); assay: Activity evaluation on recombinant human VAP-1 (Amplex Red/HRP-coupled hydrogen peroxide assay, benzylamine substrate); settings: read-out: Inhibitory Activity (IC50, nM) human VAP-1
T4 construct: purchased R&D systems
T4 sequence (Q16853 1-763): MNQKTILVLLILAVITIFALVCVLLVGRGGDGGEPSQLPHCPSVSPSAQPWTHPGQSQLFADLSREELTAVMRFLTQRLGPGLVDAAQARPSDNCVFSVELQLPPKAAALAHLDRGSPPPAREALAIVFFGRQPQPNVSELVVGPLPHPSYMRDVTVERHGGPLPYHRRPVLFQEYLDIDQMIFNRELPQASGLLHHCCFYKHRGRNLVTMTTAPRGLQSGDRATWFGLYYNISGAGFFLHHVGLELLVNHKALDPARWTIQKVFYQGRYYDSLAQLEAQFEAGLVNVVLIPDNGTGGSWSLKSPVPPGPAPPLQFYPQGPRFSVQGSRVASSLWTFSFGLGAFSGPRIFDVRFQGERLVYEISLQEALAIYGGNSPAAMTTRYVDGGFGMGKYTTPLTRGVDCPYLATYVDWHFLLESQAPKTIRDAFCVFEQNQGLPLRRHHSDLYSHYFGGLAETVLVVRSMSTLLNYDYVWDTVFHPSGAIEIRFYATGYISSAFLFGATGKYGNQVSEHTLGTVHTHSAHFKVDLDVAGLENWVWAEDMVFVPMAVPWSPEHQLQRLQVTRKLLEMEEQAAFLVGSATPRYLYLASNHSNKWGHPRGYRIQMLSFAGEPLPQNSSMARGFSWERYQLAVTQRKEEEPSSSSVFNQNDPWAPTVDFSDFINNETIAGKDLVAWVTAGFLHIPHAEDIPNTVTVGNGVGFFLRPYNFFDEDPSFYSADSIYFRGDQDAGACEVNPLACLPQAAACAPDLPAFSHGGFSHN
Outline: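 Recombinant human VAP-1 in 50 mM sodium phosphate pH 7.4 preincubated 30 min at 37 °C with compound (8-point 1:3 series, <1% DMSO), then 1 mM benzylamine, 200 uM Amplex Red, 1 U/mL HRP added. H2O2-derived resorufin fluorescence (ex 544/em 590) followed 1–2 h; IC50 from four-parameter fit of rate inhibition.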

[4] = recombinant human VAP-1, benzylamine substrate
[5] = recombinant human VAP-1, 30 min preincubation at 37° C., 1 mM benzylamine

SMILES	IC50 ([1]; 0.5 mM tyramine substrate)	IC50 ([2]; 1 mM putrescine substrate)	IC50 ([3]; 1 mM benzylamine substrate)	IC50 (recombinant human VAP-1; [4])	IC50 ([1]; 0.5 mM tyramine)	IC50 ([2]; 1 mM putrescine)	IC50 ([3]; 1 mM benzylamine)	IC50 (recombinant human VAP-1; [5])
Cc1cc(-c2cccc(-n3cnn(CC(CN)=C(F)F)c3=O)c2C)cc2c1NC(=O)CC2 [Example 258, 6-[3-[1-[2-(aminomethyl)-3,3-difluoro-allyl]-5-oxo-1,2,4-triazol-4-yl]-2-methyl-phenyl]-8-methyl-3,4-dihydro-1H-quinolin-2-one Trifluoroacetate]	> 100000 nM	> 100000 nM	> 100000 nM	2.5 nM				
CC(=O)c1ccc(-c2ccc(Cn3cnn(CC(CN)=C(F)F)c3=O)s2)cc1 [Example 100, 4-[[5-(4-acetylphenyl)-2-thienyl]methyl]-2-[2-(aminomethyl)-3,3-difluoro-allyl]-1,2,4-triazol-3-one trifluoroacetate]					> 100000 nM	> 10000 nM	11000 nM	0.5 nM
Cc1cc(-c2ccc3c(c2)CN(C)C(=O)N3)cnc1-n1cnn(CC(CN)=C(F)F)c1=O [Example 250, 6-[6-[1-[2-(aminomethyl)-3,3-difluoro-allyl]-5-oxo-1,2,4-triazol-4-yl]-5-methyl-3-pyridyl]-3-methyl-1,4-dihydroquinazolin-2-one Trifluoroacetate]	> 100000 nM	4300 nM	> 100000 nM	0.2 nM				
NCC(Cn1ncn(Cc2ccc(-c3cccc(-c4cc[nH]n4)c3)s2)c1=O)=C(F)F [Example 110, 2-[2-(aminomethyl)-3,3-difluoro-allyl]-4-[[5-[3-(1H-pyrazol-3-yl)phenyl]-2-thienyl]methyl]-1,2,4-triazol-3-one Trifluoroacetate]					> 10000 nM	> 100000 nM	8700 nM	1.3 nM
Cc1cc(-c2cccc(-n3cnn(CC(CN)=C(F)F)c3=O)n2)cc2c1NC(=O)CC2 [Example 51, 6-[6-[1-[2-(aminomethyl)-3,3-difluoro-allyl]-5-oxo-1,2,4-triazol-4-yl]-2-pyridyl]-8-methyl-3,4-dihydro-1H-quinolin-2-one Trifluoroacetate]					> 100000 nM	520 nM	28000 nM	0.6 nM
NCC(Cn1ncn(Cc2cc3cc(-c4ccc(N5CCNCC5)cc4)ccc3s2)c1=O)=C(F)F [Example 206, 2-[2-(aminomethyl)-3,3-difluoro-allyl]-4-[[5-(4-piperazin-1-ylphenyl)benzothiophen-2-yl]methyl]-1,2,4-triazol-3-one Ditrifluoroacetate]	> 100000 nM	639 nM	14600 nM	2.3 nM				
Cc1cc(-c2cnc3[nH]ccc3c2)cnc1-n1cnn(CC(CN)=C(F)F)c1=O [Example 228, 2-[2-(aminomethyl)-3,3-difluoro-allyl]-4-[3-methyl-5-(1H-pyrrolo[2,3-b]pyridin-5-yl)-2-pyridyl]-1,2,4-triazol-3-one Trifluoroacetate]	> 100000 nM	7700 nM	3300 nM	0.6 nM				
CCn1cc(-c2ccccc2Cn2cnn(CC(CN)=C(F)F)c2=O)cn1 [Example 278, 2-[2-(aminomethyl)-3,3-difluoro-allyl]-4-[[2-(1-ethylpyrazol-4-yl)phenyl]methyl]-1,2,4-triazol-3-one trifluoroacetate]	> 100000 nM	> 100000 nM	> 100000 nM	17 nM				
Cc1cc(-c2ccc3cn[nH]c3c2)cnc1-n1cnn(CC(CN)=C(F)F)c1=O [Example 233, 2-[2-(aminomethyl)-3,3-difluoro-allyl]-4-[5-(1H-indazol-6-yl)-3-methyl-2-pyridyl]-1,2,4-triazol-3-one Trifluoroacetate]	> 100000 nM	36000 nM	200 nM	0.2 nM				
CCn1cc(-c2ccc(-n3cnn(CC(CN)=C(F)F)c3=O)cc2F)cn1 [Example 30, 2-[2-(aminomethyl)-3,3-difluoro-allyl]-4-[4-(1-ethylpyrazol-4-yl)-3-fluoro-phenyl]-1,2,4-triazol-3-one Trifluoroacetate]					> 100000 nM	890 nM	300 nM	0.6 nM
NCC(Cn1ncn(-c2ccc(-c3ccc(N4CCNCC4)cc3)nc2)c1=O)=C(F)F [Example 39, 2-[2-(aminomethyl)-3,3-difluoro-allyl]-4-[6-(4-piperazin-1-ylphenyl)-3-pyridyl]-1,2,4-triazol-3-one Ditrifluoroacetate]					> 100000 nM	310 nM	46000 nM	1.2 nM
NCC(Cn1ncn(Cc2ccc(C#Cc3cnc4c(c3)OCC(=O)N4)s2)c1=O)=C(F)F [Example 170, 7-[2-[5-[[1-[2-(aminomethyl)-3,3-difluoro-allyl]-5-oxo-1,2,4-triazol-4-yl]methyl]-2-thienyl]ethynyl]-4H-pyrido[3,2-b][1,4]oxazin-3-one Trifluoroacetate]					> 100000 nM	> 10000 nM	14000 nM	0.8 nM
NCC(Cn1ncn(-c2ccnc(Br)c2)c1=O)=C(F)F [Example 10, 2-[2-(aminomethyl)-3,3-difluoro-allyl]-4-(2-bromo-4-pyridyl)-1,2,4-triazol-3-one Trifluoroacetate]					> 100000 nM	1200 nM	> 100000 nM	7.7 nM
